# Experimental data taken from patent US10611740B2, “Aryl dihydro-2H-benzo[b][1,4]oxazine sulfonamide and related compounds for use as agonists of RORγ and the treatment of disease” (Lycera Corporation, priority 2015, dated 2020).
# Legend:
# RORγ-LBD = biological target: T1, RORγ-LBD (Homo sapiens, UniProt P51449); test: RORγ-Ligand Binding Domain (LBD) TR-FRET Assay; assay type: biochemical;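 for TR-FRET Assay Max Response: 665/615 nm ratio relative to signal without ursolic acid or compound set at 100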
# T1 construct: made in house; host or cells: SF9 cells (baculovirus)
# T1 sequence (P51449 269-508 limits assumed): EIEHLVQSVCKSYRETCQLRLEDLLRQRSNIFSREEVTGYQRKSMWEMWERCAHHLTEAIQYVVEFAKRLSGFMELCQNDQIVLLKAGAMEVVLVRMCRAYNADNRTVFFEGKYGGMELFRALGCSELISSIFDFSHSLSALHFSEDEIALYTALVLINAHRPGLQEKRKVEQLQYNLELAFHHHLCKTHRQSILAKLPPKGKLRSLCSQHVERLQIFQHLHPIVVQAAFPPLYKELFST
# Outline: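 SF9 lysate containing His-RORγ-LBD, ~3 nM final; coactivator peptide biotin-SRC1 LXXLL, 200 nM final; ursolic acid 2 μM final; DMSO 1% final; Tris pH 7.0 buffer with KCl, EDTA, DTT, BSA. TR-FRET format.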
# Gal4-RORγ-LBD = biological target: T2, Gal4-RORγ-LBD (Homo sapiens, UniProt P51449); test: Gal4-RORγ Luciferase Reporter Assay in HEK-293T Cells; assay type: cell-based; conditions: HEK-293 cells
# T2 construct: expressed in transfected cells; host or cells: HEK-293 cells (pcDNA3.1neo plasmid)
# T2 sequence (P51449 269-508 limits assumed): T1 sequence (P51449 269-508 limits assumed)
# Outline: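 In transfected HEK-293 cells (Gal4-RORγ-LBD, Gal4-luciferase), test agents with 2 μM ursolic acid were incubated overnight at 37 °C before luminescent detection. Values are relative to the ursolic-acid-free, compound-free signal (100).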
# [1] = luciferase reporter, with 2 μM ursolic acid
SMILES,EC50 (RORγ-LBD) [nM],TR-FRET Assay Max Response (RORγ-LBD),EC50 (Gal4-RORγ-LBD; 2 μM ursolic acid) [nM],Gal4-RORγ Assay Max Response (Gal4-RORγ-LBD; 2 μM ursolic acid),EC50 (Gal4-RORγ-LBD; [1]) [nM],Gal4-RORγ Assay Max Response (Gal4-RORγ-LBD; [1])
"Cc1cccc(C)c1-c1ccc2c(c1)N(S(=O)(=O)c1cccc(C(F)(F)F)c1)C[C@H](CC(C)(C)C(=O)O)O2 [Compound 32BA, (S)-3-(6-(2,6-dimethylphenyl)-4-((3-(trifluoromethyl)phenyl)-sulfonyl)-3,4-dihydro-2H-benzo[b][1,4]oxazin-2-yl)-2,2-dimethylpropanoic acid]",< 500,*** (The symbol “***” indicates a value in the range of greater than 150 to 200),500 to 5000,** (The symbol “**” indicates a value in the range of greater than 90 to 150),–,–
"Cc1cc(Cl)cc(-c2ccc3c(c2)N(S(=O)(=O)c2cccc(C(F)(F)F)c2)C[C@H](CC(C)(C)C(=O)O)O3)c1 [Compound 32BB, (S)-3-(6-(3-chloro-5-methyl-phenyl)-4-((3-(trifluoromethyl)-phenyl)sulfonyl)-3,4-dihydro-2H-benzo[b][1,4]oxazin-2-yl)-2,2-dimethylpropanoic acid]",< 500,* (The symbol “*” indicates a value in the range of 25 to 90),< 500,** (The symbol “**” indicates a value in the range of greater than 90 to 150),–,–
"CC(C)(C[C@H]1CN(S(=O)(=O)c2cccc(C(F)(F)F)c2)c2cc(-c3cccc(F)c3C(F)(F)F)ccc2O1)C(=O)O [Compound 32BC, (S)-3-(6-(3-fluoro-2-(trifluoromethyl)phenyl)-4-((3-(trifluoromethyl)phenyl)sulfonyl)-3,4-dihydro-2H-benzo[b][1,4]oxazin-2-yl)-2,2-dimethylpropanoic acid]",< 500,** (The symbol “**” indicates a value in the range of greater than 90 to 150),< 500,** (The symbol “**” indicates a value in the range of greater than 90 to 150),–,–
"O=C(O)C1(C[C@H]2CN(S(=O)(=O)c3cccc(C(F)(F)F)c3)c3cc(-c4cc(F)cc(F)c4)ccc3O2)CCC1 [Compound 32BD, (S)-1-((6-(3,5-difluorophenyl)-4-((3-(trifluoromethyl)phenyl)-sulfonyl)-3,4-dihydro-2H-benzo[b][1,4]oxazin-2-yl)methyl)cyclobutane-1-carboxylic acid]",< 500,** (The symbol “**” indicates a value in the range of greater than 90 to 150),< 500,** (The symbol “**” indicates a value in the range of greater than 90 to 150),–,–
"O=C(O)C1(C[C@H]2CN(S(=O)(=O)c3cccc(C(F)(F)F)c3)c3cc(-c4cc(F)ccc4F)ccc3O2)CCC1 [Compound 32BE, (S)-1-((6-(2,5-difluorophenyl)-4-((3-(trifluoromethyl)phenyl)-sulfonyl)-3,4-dihydro-2H-benzo[b][1,4]oxazin-2-yl)methyl)cyclobutane-1-carboxylic acid]",< 500,** (The symbol “**” indicates a value in the range of greater than 90 to 150),< 500,** (The symbol “**” indicates a value in the range of greater than 90 to 150),–,–
"O=C(O)C1(C[C@H]2CN(S(=O)(=O)c3cccc(C(F)(F)F)c3)c3cc(-c4cccc(Cl)c4F)ccc3O2)CCC1 [Compound 32BF, (S)-1-((6-(3-chloro-2-fluoro-phenyl)-4-((3-(trifluoromethyl)-phenyl)sulfonyl)-3,4-dihydro-2H-benzo[b][1,4]oxazin-2-yl)-methyl)cyclobutane-1-carboxylic acid]",< 500,*** (The symbol “***” indicates a value in the range of greater than 150 to 200),< 500,** (The symbol “**” indicates a value in the range of greater than 90 to 150),–,–
"CC(C)(C[C@H]1CN(S(=O)(=O)c2cccc(C(F)(F)F)c2)c2cc(-c3cc(F)cc(OC(F)F)c3F)ccc2O1)C(=O)O [Compound 32BG, (S)-3-(6-(3-(difluoromethoxy)-2,5-difluorophenyl)-4-((3-(trifluoromethyl)phenyl)sulfonyl)-3,4-dihydro-2H-benzo[b][1,4]-oxazin-2-yl)-2,2-dimethyl-propanoic acid]",< 500,** (The symbol “**” indicates a value in the range of greater than 90 to 150),< 500,** (The symbol “**” indicates a value in the range of greater than 90 to 150),–,–
"O=C(O)C1(C[C@H]2CN(S(=O)(=O)c3cccc(C(F)(F)F)c3)c3cc(-c4cc(F)cc(OC(F)F)c4)ccc3O2)CCC1 [Compound 32BH, (S)-1-((6-(3-(difluoromethoxy)-5-fluorophenyl)-4-((3-(trifluoro-methyl)phenyl)sulfonyl)-3,4-dihydro-2H-benzo[b][1,4]oxazin-2-yl)methyl)cyclobutane-l-carboxylic acid]",< 500,*** (The symbol “***” indicates a value in the range of greater than 150 to 200),500 to 5000,** (The symbol “**” indicates a value in the range of greater than 90 to 150),–,–
"CC(C)(C[C@H]1CN(S(=O)(=O)c2cccc(C(F)(F)F)c2)c2cc(-c3cc(OC(F)F)ccc3F)ccc2O1)C(=O)O [Compound 32BI, (S)-3-(6-(5-(difluoromethoxy)-2-fluorophenyl)-4-((3-(trifluoromethyl)phenyl)sulfonyl)-3,4-dihydro-2H-benzo[b][1,4]oxazin-2-yl)-2,2-dimethylpropanoic acid]",< 500,*** (The symbol “***” indicates a value in the range of greater than 150 to 200),< 500,** (The symbol “**” indicates a value in the range of greater than 90 to 150),–,–
"CC(C)(C[C@H]1CN(S(=O)(=O)c2cccc(C(F)(F)F)c2)c2cc(-c3cccc(OC(F)F)c3F)ccc2O1)C(=O)O [Compound 32BJ, (S)-3-(6-(3-(difluoromethoxy)-2-fluorophenyl)-4-((3-(trifluoromethyl)phenyl)sulfonyl)-3,4-dihydro-2H-benzo[b][1,4]oxazin-2-yl)-2,2-dimethylpropanoic acid]",< 500,*** (The symbol “***” indicates a value in the range of greater than 150 to 200),< 500,** (The symbol “**” indicates a value in the range of greater than 90 to 150),–,–
"COc1ccc(F)c(-c2ccc3c(c2)N(S(=O)(=O)c2cccc(C(F)(F)F)c2)C[C@H](CC(C)(C)C(=O)O)O3)c1F [Compound 32BK, (S)-3-(6-(2,6-difluoro-3-methoxyphenyl)-4-((3-(trifluoromethyl)phenyl)sulfonyl)-3,4-dihydro-2H-benzo[b][1,4]oxazin-2-yl)-2,2-dimethylpropanoic acid]",< 500,*** (The symbol “***” indicates a value in the range of greater than 150 to 200),< 500,** (The symbol “**” indicates a value in the range of greater than 90 to 150),–,–
"O=C(O)C1(C[C@H]2CN(S(=O)(=O)c3cccc(C(F)(F)F)c3)c3cc(-c4cccc(C(F)(F)F)n4)ccc3O2)CCC1 [Compound 32BL, (S)-l-((4-((3-(trifluoromethyl)-phenyl)sulfonyl)-6-(6-(trifluoro-methyl)pyridin-2-yl)-3,4-dihydro-2H-benzo[b][1,4]oxazin-2-yl)methyl)cyclobutane-1-carboxylic acid]",< 500,** (The symbol “**” indicates a value in the range of greater than 90 to 150),< 500,* (The symbol “*” indicates a value in the range of 25 to 90),–,–
"CC(C)(C[C@H]1CN(S(=O)(=O)c2cccc(C(F)(F)F)c2)c2cc(-c3c(F)ccc(F)c3F)ccc2O1)C(=O)O [Compound 32BM, (S)-2,2-dimethyl-3-(4-((3-(trifluoromethyl)phenyl)sulfonyl)-6-(2,3,6-trifluorophenyl)-3,4-dihydro-2H-benzo[b][1,4]oxazin-2-yl)propanoic acid]",< 500,*** (The symbol “***” indicates a value in the range of greater than 150 to 200),< 500,** (The symbol “**” indicates a value in the range of greater than 90 to 150),–,–
"COc1cc(F)cc(-c2ccc3c(c2)N(S(=O)(=O)c2cccc(C(F)(F)F)c2)C[C@H](CC(C)(C)C(=O)O)O3)c1F [Compound 32C, (S)-3-(6-(2,5-difluoro-3-methoxyphenyl)-4-((3-(trifluoromethyl)phenyl)sulfonyl)-3,4-dihydro-2H-benzo[b][1,4]oxazin-2-yl)-2,2-dimethylpropanoic acid]",< 500,**** (The symbol “****” indicates a value greater than 200),–,–,< 500,** (The symbol “**” indicates a value in the range of greater than 90 to 150)
